According to ChEMBL document CHEMBL1140254, “A novel [99mTc[triple bond]N]2+ complex of metronidazole xanthate as a potential agent for targeting hypoxia” (Bioorg Med Chem Lett, 2005):

What was measured:
[1] = Biodistribution of the labeled compound in mice liver 60 min after post-injection; assay type: ADME, organism-based; details: mouse, in vivo, 1 h
[2] = Biodistribution of the labeled compound in mice stomach 30 min after post-injection; assay type: ADME, organism-based; details: mouse, in vivo, 0.5 h
[3] = Biodistribution of the labeled compound in mice Muscle 30 min after post-injection; assay type: ADME, organism-based, Muscle tissue; details: mouse, in vivo, 0.5 h
[4] = Biodistribution of the labeled compound in mice kidney 180 min after post-injection; assay type: ADME, organism-based; details: mouse, in vivo, 3 h
[5] = Biodistribution of the labeled compound in mice int+GB 180 min after post-injection; assay type: ADME, organism-based; details: mouse, in vivo, 3 h
Mus musculus [6] = species on record: Mus musculus; assay: Tumor/blood ratio of the label compound in mice 60 min after post injection; assay type: functional
[7] = Biodistribution of the labeled compound in mice liver 180 min after post-injection; assay type: ADME, organism-based; details: mouse, in vivo, 3 h
[8] = Biodistribution of the labeled compound in mice bone 60 min after post-injection; assay type: ADME, organism-based, Bone element; details: mouse, in vivo, 1 h
[9] = Biodistribution of the labeled compound in mice lungs 180 min after post-injection; assay type: ADME, organism-based, Lung; details: mouse, in vivo, 3 h
[10] = Biodistribution of the labeled compound in mice muscle 60 min after post-injection; assay type: ADME, organism-based, Muscle tissue; details: mouse, in vivo, 1 h
[11] = Biodistribution of the labeled compound in mice stomach 180 min after post-injection; assay type: ADME, organism-based; details: mouse, in vivo, 3 h
[12] = Biodistribution of the labeled compound in mice kidney 30 min after post-injection; assay type: ADME, organism-based; details: mouse, in vivo, 0.5 h
Mus musculus [13] = species on record: Mus musculus; assay: Tumor/muscle ratio of the label compound in mice 180 min after post injection; assay type: functional, Muscle tissue
Mus musculus [14] = species on record: Mus musculus; assay: Tumor/muscle ratio of the label compound in mice 60 min after post injection; assay type: functional, Muscle tissue
[15] = Biodistribution of the labeled compound in mice bone 30 min after post-injection; assay type: ADME, organism-based, Bone element; details: mouse, in vivo, 0.5 h
[16] = Biodistribution of the labeled compound in mice blood 60 min after post-injection; assay type: ADME, organism-based; details: mouse, in vivo, 1 h
[17] = Biodistribution of the labeled compound in mice int+GB 60 min after post-injection; assay type: ADME, organism-based; details: mouse, in vivo, 1 h
Mus musculus [18] = species on record: Mus musculus; assay: Tumor/muscle ratio of the label compound in mice 30 min after post injection; assay type: functional, Muscle tissue
[19] = Biodistribution of the labeled compound in mice kidney 60 min after post-injection; assay type: ADME, organism-based; details: mouse, in vivo, 1 h
[20] = Biodistribution of the labeled compound in mice tumor 60 min after post-injection at adose 1.44 g; assay type: ADME, organism-based; details: mouse, in vivo, 1 h
[21] = Biodistribution of the labeled compound in mice heart 60 min after post-injection; assay type: ADME, organism-based; details: mouse, in vivo, 1 h
Mus musculus [22] = species on record: Mus musculus; assay: Tumor/blood ratio of the label compound in mice 180 min after post injection; assay type: functional
[23] = Biodistribution of the labeled compound in mice blood 180 min after post-injection; assay type: ADME, organism-based; details: mouse, in vivo, 3 h
[24] = Biodistribution of the labeled compound in mice blood 30 min after post-injection; assay type: ADME, organism-based; details: mouse, in vivo, 0.5 h
[25] = Biodistribution of the labeled compound in mice tumor 180 min after post-injection at adose 1.36 g; assay type: ADME, organism-based; details: mouse, in vivo, 3 h
[26] = Biodistribution of the labeled compound in mice spleen 60 min after post-injection; assay type: ADME, organism-based; details: mouse, in vivo, 1 h
[27] = Biodistribution of the labeled compound in mice spleen 180 min after post-injection; assay type: ADME, organism-based; details: mouse, in vivo, 3 h
[28] = Biodistribution of the labeled compound in mice heart 180 min after post-injection; assay type: ADME, organism-based; details: mouse, in vivo, 3 h
[29] = Biodistribution of the labeled compound in mice muscle 180 min after post-injection; assay type: ADME, organism-based, Muscle tissue; details: mouse, in vivo, 3 h
[30] = Biodistribution of the labeled compound in mice tumor 30 min after post-injection at a dose of 1.42 g; assay type: ADME, organism-based; details: mouse, in vivo, 0.5 h
[31] = Biodistribution of the labeled compound in mice lungs 60 min after post-injection; assay type: ADME, organism-based, Lung; details: mouse, in vivo, 1 h
[32] = Biodistribution of the labeled compound in mice int +GB 30 min after post-injection; assay type: ADME, organism-based; details: mouse, in vivo, 0.5 h
[33] = Biodistribution of the labeled compound in mice spleen 30 min after post-injection; assay type: ADME, organism-based; details: mouse, in vivo, 0.5 h
[34] = Biodistribution of the labeled compound in mice bone 180 min after post-injection; assay type: ADME, organism-based, Bone element; details: mouse, in vivo, 3 h
Mus musculus [35] = species on record: Mus musculus; assay: Tumor/blood ratio of the label compound in mice 30 min after post injection; assay type: functional
[36] = Biodistribution of the labeled compound in mice heart 30 min after post-injection; assay type: ADME, organism-based; details: mouse, in vivo, 0.5 h
[37] = Biodistribution of the labeled compound in mice liver 30 min after post-injection; assay type: ADME, organism-based; details: mouse, in vivo, 0.5 h
[38] = Biodistribution of the labeled compound in mice stomach 60 min after post-injection; assay type: ADME, organism-based; details: mouse, in vivo, 1 h
[39] = Biodistribution of the labeled compound in mice lungs 30 min after post-injection; assay type: ADME, organism-based, Lung; details: mouse, in vivo, 0.5 h

Question: For `Cc1ncc([N+](=O)[O-])n1CCOC(=S)[S-].[Na+]` [METRONIDAZOLE XANTHATE], which Biodistribution [1] is on record?
Answer: The Biodistribution was 23.53.

Question: And the Biodistribution [2]?
Answer: The Biodistribution was 1.68.

Question: And the Biodistribution [3]?
Answer: The Biodistribution was 11.19.

Question: What about the Biodistribution [4] of the same compound?
Answer: The Biodistribution was 2.87.

Question: And the Biodistribution [5]?
Answer: The Biodistribution was 32.52.

Question: What about the Ratio (Mus musculus [6]) of the same compound?
Answer: Its Ratio is 0.36.

Question: And the Biodistribution [7]?
Answer: Its Biodistribution is 18.37.

Question: And the Biodistribution [8]?
Answer: Its Biodistribution is 2.43.

Question: And the Biodistribution [9]?
Answer: The Biodistribution was 0.75.

Question: What about the Biodistribution [10] of the same compound?
Answer: The Biodistribution was 6.43.

Question: What about the Biodistribution [11] of the same compound?
Answer: The Biodistribution was 0.71.

Question: What about the Biodistribution [12] of the same compound?
Answer: The Biodistribution was 4.25.

Question: What about the Ratio (Mus musculus [13]) of the same compound?
Answer: The Ratio was 3.35.

Question: And the Ratio (Mus musculus [14])?
Answer: Its Ratio is 2.15.

Question: What about the Biodistribution [15] of the same compound?
Answer: Its Biodistribution is 2.59.

Question: What about the Biodistribution [16] of the same compound?
Answer: Its Biodistribution is 6.75.

Question: And the Biodistribution [17]?
Answer: The Biodistribution was 20.19.

Question: And the Ratio (Mus musculus [18])?
Answer: The Ratio was 1.19.

Question: What about the Biodistribution [19] of the same compound?
Answer: The Biodistribution was 3.18.

Question: And the Biodistribution [20]?
Answer: Its Biodistribution is 0.43.

Question: What about the Biodistribution [21] of the same compound?
Answer: The Biodistribution was 0.27.

Question: And the Ratio (Mus musculus [22])?
Answer: The Ratio was 0.62.

Question: What about the Biodistribution [23] of the same compound?
Answer: Its Biodistribution is 3.95.

Question: What about the Biodistribution [24] of the same compound?
Answer: Its Biodistribution is 11.45.

Question: And the Biodistribution [25]?
Answer: Its Biodistribution is 0.41.

Question: And the Biodistribution [26]?
Answer: The Biodistribution was 0.34.

Question: And the Biodistribution [27]?
Answer: The Biodistribution was 0.27.

Question: What about the Biodistribution [28] of the same compound?
Answer: Its Biodistribution is 0.27.

Question: And the Biodistribution [29]?
Answer: Its Biodistribution is 4.2.

Question: And the Biodistribution [30]?
Answer: Its Biodistribution is 0.4.

Question: And the Biodistribution [31]?
Answer: Its Biodistribution is 1.09.

Question: And the Biodistribution [32]?
Answer: Its Biodistribution is 12.46.

Question: And the Biodistribution [33]?
Answer: Its Biodistribution is 0.25.

Question: What about the Biodistribution [34] of the same compound?
Answer: Its Biodistribution is 2.27.

Question: What about the Ratio (Mus musculus [35]) of the same compound?
Answer: Its Ratio is 0.2.

Question: And the Biodistribution [36]?
Answer: The Biodistribution was 0.38.

Question: What about the Biodistribution [37] of the same compound?
Answer: Its Biodistribution is 29.32.

Question: And the Biodistribution [38]?
Answer: The Biodistribution was 0.74.

Question: What about the Biodistribution [39] of the same compound?
Answer: Its Biodistribution is 1.59.
